Data as given in US9302999B2, “Substituted triazoles as herbicides” (E. I. DU PONT DE NEMOURS AND COMPANY, priority 2012, dated 2016).

How the values were obtained:
Format in all cases: in vivo
[1] = tested on: velvetleaf (Abutilon theophrasti); assay: Test A pre-/postemergence: velvetleaf; conditions: for Velvetleaf plant response rating: visual rating on 0 to 100 scale (0 no effect, 100 complete control), approximately ten days
How it was run: (§1)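 Soil medium was loam blended with sand; treatments pre- and postemergence were applied concurrently, postemergence at one- to two-leaf stage. Approximately ten days in greenhouse preceded visual comparison with untreated controls, scored 0 (no effect) to 100 (complete control).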

[2] = tested on: winter wheat (Triticum aestivum); assay: Test C pre-/postemergence: winter wheat
How it was run: (§2)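 Visual injury scored 0–100 (100 = complete control) against untreated controls after 13–15 greenhouse days. Surfactant-containing solvent formulations applied either to soil after sowing (loam/sand) or over 1- to 4-leaf plants, 2–18 cm tall.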

[3] = tested on: johnsongrass (Sorghum halepense); assay: Test C pre-/postemergence: johnsongrass
How it was run: as §2

wild oat (Avena fatua) = assay: Test C pre-/postemergence: wild oat; conditions: Postemergence
How it was run: as §2

[4] = tested on: pigweed (Amaranthus retroflexus); assay: Test C pre-/postemergence: pigweed
How it was run: as §2

[5] = tested on: barnyardgrass (Echinochloa crus-galli); assay: Test A pre-/postemergence: barnyardgrass; conditions: for Barnyardgrass plant response rating: visual rating on 0 to 100 scale (0 no effect, 100 complete control), approximately ten days
How it was run: as §1

[6] = tested on: chickweed (common chickweed, Stellaria media); assay: Test C postemergence: chickweed
How it was run: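 Seedlings are raised in pots of peat-based medium to 2–18 cm (1- to 4-leaf stage). The formulated compound is then applied postemergence. Plants stay in the greenhouse for 13 to 15 days and are rated visually against controls, where 0 means no effect and 100 complete control.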

[7] = tested on: blackgrass (Alopecurus myosuroides); assay: Test C pre-/postemergence: blackgrass
How it was run: as §2

rice (Oryza sativa) = assay: Test B flooded paddy: rice; conditions: Flood; 250 g ai/ha; applied to paddy water at 2-leaf stage; visually evaluated after 13 to 15 days
How it was run: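 Each compound is applied to the floodwater of pots holding 2-leaf seedlings, water standing 3 cm over the soil throughout. Plants stay in a greenhouse 13 to 15 days before visual scoring against controls from 0 (no effect) to 100 (complete control).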

corn (Zea mays) = assay: Test A pre-/postemergence: corn; conditions: for Corn plant response rating: visual rating on 0 to 100 scale (0 no effect, 100 complete control), approximately ten days
How it was run: as §1

[8] = Postemergence, 125 g ai/ha, 0 to 100 scale, 0 is no effect, 100 is complete control
[9] = Preemergence, 125 g ai/ha, 0 to 100 scale where 0 is no effect and 100 is complete control
[10] = Postemergence, 31 g ai/ha, scale 0 to 100 (0 no effect, 100 complete control)
[11] = Postemergence, 62 g ai/ha, scale 0 to 100 (0 no effect, 100 complete control)
[12] = Postemergence, 125 g ai/ha, scale 0 to 100, 0 no effect, 100 complete control
[13] = Postemergence, 250 g ai/ha, scale 0 to 100
[14] = Preemergence, 62 g ai/ha, scale of 0 to 100, 0 is no effect, 100 is complete control
[15] = Preemergence, 125 g ai/ha, scale 0 to 100, 0 no effect, 100 complete control
[16] = Preemergence, 250 g ai/ha, scale 0 to 100, 0 no effect, 100 complete control
[17] = Preemergence, 31 g ai/ha, scale of 0 to 100, 0 is no effect, 100 is complete control
[18] = 31 g ai/ha, scale 0 to 100 (0 no effect, 100 complete control)
[19] = 62 g ai/ha, scale 0 to 100 (0 no effect, 100 complete control)
[20] = 125 g ai/ha, scale 0 to 100, 0 no effect, 100 complete control
[21] = Preemergence, 500 g ai/ha, 0 to 100 scale (0 no effect, 100 complete control)
[22] = Postemergence, 16 g ai/ha, scale 0 to 100, 0 no effect, 100 complete control
[23] = Preemergence, 16 g ai/ha, scale 0 (no effect) to 100 (complete control)
[24] = 16 g ai/ha, scale 0 to 100, 0 no effect, 100 complete control

Cc1nn(-c2ccc(F)c(C(F)(F)F)c2)nc1Cc1ccnc(C(F)(F)F)c1 [Compound 156]
Plant response rating, Velvetleaf [1, 8]: 100 | Velvetleaf plant response rating ([1]; Postemergence, 500 g ai/ha): 100 | Plant response rating, Velvetleaf [1, 9]: 30 | Plant response rating, Wheat [2, 10]: 5 | Plant response rating, Wheat [2, 11]: 15 | Plant response rating, Wheat [2, 12]: 25 | Plant response rating, Wheat [2, 13]: 30 | Plant response rating, Wheat [2, 14]: 5 | Plant response rating, Wheat [2, 15]: 20 | Plant response rating, Wheat [2, 16]: 35 | Plant response rating, Johnsongrass [3, 10]: 45 | Plant response rating, Johnsongrass [3, 11]: 50 | Plant response rating, Johnsongrass [3, 12]: 65 | Plant response rating, Johnsongrass [3, 13]: 85 | Plant response rating, Johnsongrass [3, 17]: 75 | Plant response rating, Johnsongrass [3, 14]: 90 | Plant response rating, Johnsongrass [3, 15]: 90 | Plant response rating, Johnsongrass [3, 16]: 95 | Plant response rating, Oat, Wild (wild oat (Avena fatua); [18]): 35 | Plant response rating, Oat, Wild (wild oat (Avena fatua); [19]): 50 | Plant response rating, Oat, Wild (wild oat (Avena fatua); [20]): 50 | Plant response rating, Oat, Wild (wild oat (Avena fatua); 250 g ai/ha, scale 0 to 100): 70 | Plant response rating, Pigweed [4, 10]: 75 | Plant response rating, Pigweed [4, 11]: 90 | Plant response rating, Pigweed [4, 12]: 95 | Plant response rating, Pigweed [4, 13]: 100 | Plant response rating, Pigweed [4, 17]: 100 | Plant response rating, Pigweed [4, 14]: 100 | Plant response rating, Pigweed [4, 15]: 100 | Plant response rating, Pigweed [4, 16]: 100 | Plant response rating, Barnyardgrass [5, 8]: 90 | Barnyardgrass plant response rating ([5]; Postemergence, 500 g ai/ha): 90 | Plant response rating, Barnyardgrass [5, 9]: 100 | Plant response rating, Barnyardgrass [5, 21]: 100 | Plant response rating, Chickweed [6, 18]: 95 | Plant response rating, Chickweed [6, 19]: 95 | Plant response rating, Chickweed [6, 20]: 95 | Plant response rating, Chickweed ([6]; 250 g ai/ha, scale 0 to 100): 98 | Plant response rating, Blackgrass [7, 10]: 50 | Plant response rating, Blackgrass [7, 11]: 60 | Plant response rating, Blackgrass [7, 12]: 75 | Plant response rating, Blackgrass [7, 13]: 85 | Plant response rating, Blackgrass [7, 17]: 85 | Plant response rating, Blackgrass [7, 14]: 90 | Plant response rating, Blackgrass [7, 15]: 90 | Plant response rating, Blackgrass [7, 16]: 90 | Plant response rating, Rice (0 to 100 scale, 0 is no effect, 100 is complete control) (rice (Oryza sativa)): 50 | Plant response rating, Corn (corn (Zea mays); [8]): 40 | Corn plant response rating (corn (Zea mays); Postemergence, 500 g ai/ha): 70 | Plant response rating, Corn (corn (Zea mays); [9]): 40 | Plant response rating, Corn (corn (Zea mays); [21]): 70

FCc1nn(-c2ccc(F)cc2)nc1Oc1ccnc(C(F)(F)F)c1 [Compound 160]
Plant response rating, Velvetleaf [1, 8]: 90 | Velvetleaf plant response rating ([1]; Postemergence, 500 g ai/ha): 100 | Plant response rating, Velvetleaf [1, 9]: 50 | Plant response rating, Velvetleaf [1, 21]: 70 | Plant response rating, Wheat [2, 22]: 5 | Plant response rating, Wheat [2, 10]: 5 | Plant response rating, Wheat [2, 11]: 25 | Plant response rating, Wheat [2, 12]: 25 | Plant response rating, Wheat [2, 23]: 0 | Plant response rating, Wheat [2, 14]: 15 | Plant response rating, Wheat [2, 15]: 40 | Plant response rating, Johnsongrass [3, 22]: 10 | Plant response rating, Johnsongrass [3, 10]: 15 | Plant response rating, Johnsongrass [3, 12]: 30 | Plant response rating, Johnsongrass [3, 23]: 85 | Plant response rating, Johnsongrass [3, 17]: 100 | Plant response rating, Johnsongrass [3, 14]: 100 | Plant response rating, Johnsongrass [3, 15]: 100 | Plant response rating, Oat, Wild (wild oat (Avena fatua); [24]): 15 | Plant response rating, Oat, Wild (wild oat (Avena fatua); [18]): 30 | Plant response rating, Oat, Wild (wild oat (Avena fatua); [19]): 45 | Plant response rating, Oat, Wild (wild oat (Avena fatua); [20]): 60 | Plant response rating, Pigweed [4, 22]: 95 | Plant response rating, Pigweed [4, 10]: 95 | Plant response rating, Pigweed [4, 11]: 98 | Plant response rating, Pigweed [4, 12]: 98 | Plant response rating, Pigweed [4, 23]: 90 | Plant response rating, Pigweed [4, 17]: 100 | Plant response rating, Pigweed [4, 14]: 100 | Plant response rating, Pigweed [4, 15]: 100 | Plant response rating, Barnyardgrass [5, 8]: 70 | Barnyardgrass plant response rating ([5]; Postemergence, 500 g ai/ha): 90 | Plant response rating, Barnyardgrass [5, 9]: 100 | Plant response rating, Barnyardgrass [5, 21]: 100 | Plant response rating, Chickweed [6, 24]: 70 | Plant response rating, Chickweed [6, 18]: 90 | Plant response rating, Chickweed [6, 19]: 95 | Plant response rating, Chickweed [6, 20]: 98 | Plant response rating, Blackgrass [7, 22]: 25 | Plant response rating, Blackgrass [7, 10]: 35 | Plant response rating, Blackgrass [7, 11]: 45 | Plant response rating, Blackgrass [7, 12]: 65 | Plant response rating, Blackgrass [7, 23]: 0 | Plant response rating, Blackgrass [7, 17]: 40 | Plant response rating, Blackgrass [7, 14]: 90 | Plant response rating, Blackgrass [7, 15]: 90 | Plant response rating, Rice (0 to 100 scale, 0 is no effect, 100 is complete control) (rice (Oryza sativa)): 55 | Plant response rating, Corn (corn (Zea mays); [8]): 30 | Corn plant response rating (corn (Zea mays); Postemergence, 500 g ai/ha): 60 | Plant response rating, Corn (corn (Zea mays); [9]): 20 | Plant response rating, Corn (corn (Zea mays); [21]): 40
